Each structure is given as a SMILES string. ≈ marks a conversion by molar mass, not a printed value. Like-named read-outs stand apart in the source and are kept apart here. Bounds are passed on as bounds.

One may read the MIC as the smallest concentration in the dilution series that meets the test's criterion for growth inhibition.

Data set [1] has as its system gram positive bacteria. Briefly: In vitro anti-bacterial activity assay (broth dilution MIC), gram positive bacteria. Conditions: 18 h. The class given is cell-based, S. aureus. In outline: (§1)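 Broth dilution MIC following CLSI M7-A2: compounds serially diluted, log-phase test strains added to final ~5×10^5 CFU/ml, incubated ~18 hours at 35° C in ambient air. Plates read on microplate reader or visually; MIC is lowest concentration inhibiting growth.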
Background: Dilution methods test growth across graded concentrations, often in twofold steps.

Data set [2] can be described thus: Mammalian cytotoxicity assay (resazurin), COS-1 cells. The class given is cell-based. As to conditions: African green monkey, read-out: Cytotox. COS-1. In outline:
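Cells seeded overnight at 37° C., 5% CO2, then exposed to serial compound dilutions for 24 hours. Medium replaced with resazurin (0.042 mg/ml in PBS with Ca and Mg) for 2 hours plus 30 minutes dark at room temperature; fluorescence read at ex 535/em 590 nm, IC50 taken as 50% growth inhibition.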
(Alamar Blue is a resazurin reagent that responds to reducing activity.)

The test system of data set [3] is gram negative bacteria. Nature of the data set: In vitro anti-bacterial activity assay (broth dilution MIC), gram negative bacteria. The class given is cell-based, E. coli. Summed up: as §1
A short description of data set [4]: in vitro. The data set is classed as cell-based. Conditions: Chinese hamster, Cytotox. CHO-K1.
For data set [5], the system named is 3T3 fibroblast cells. Briefly: In vitro phototoxicity assay (neutral red; UV light-treated vs dark control plates). The class given is cell-based. Conditions: for Photo Toxicity UV Tox50: UV light 50 minutes; for Photo Toxicity Dark Tox50: dark control plate. Summed up:
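Neutral red viability readout (A535 after EtOH/acetic acid extraction) compares paired plates: one exposed 50 min to UV at 1.6–1.8 mW/cm^2, one held in darkness, both dosed with compound in HBSS and recovered overnight. 3T3 fibroblast cells used; phototoxicity taken as the difference.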

The mark [6] stands for this setting: Staphylococcus aureus, S. aureus MRSA5, read-out: Median MIC's G+ S. aureus MRSA5.
[7] abbreviates: Staphylococcus aureus, S. aureus RN450, read-out: Median MIC's G+ S. aureus RN450.
The mark [8] stands for this setting: Streptococcus pneumoniae, S. pneumoniae 157E-Strep, read-out: Median MIC's G+ S. pneumoniae 157E-Strep.
The mark [9] stands for this setting: Escherichia coli, 18 h, E. coli D1 209, read-out: Median MIC's G− E. coli D1 209.
The mark [10] stands for this setting: Escherichia coli, 18 h, E. coli MG 1655, read-out: Median MIC's G− E. coli MG 1655.
[11] abbreviates: Escherichia coli, ATCC25922, 18 h, E. coli ATCC 25922, read-out: Median MIC's G− E. coli ATCC 25922.
Where [12] appears, read: Pseudomonas aeruginosa, 18 h, P. aeruginosa K201 PAO6609, read-out: Median MIC's G− P. aeruginosa K201 PAO6609.

Turning to `COc1ccc(CN(C)C)cc1-c1ccc(O)c2c1C[C@H]1C[C@H]3[C@H](N(C)C)C(O)=C(C(N)=O)C(=O)[C@@]3(O)C(O)=C1C2=O` [AT], the MIC is 0.5 µg/mL (≈ 0.866 µM) in data set [1] (setting [6]); 0.06 µg/mL (≈ 0.104 µM) in data set [1] (setting [7]); 0.06 µg/mL (≈ 0.104 µM) in data set [1] (setting [8]); 1 µg/mL (≈ 1.73 µM) in data set [3] (setting [9]); 1 µg/mL (≈ 1.73 µM) in data set [3] (setting [10]); 0.5 µg/mL (≈ 0.866 µM) in data set [3] (setting [11]). Further, the minimum inhibitory concentration (MIC) in data set [3] (setting [12]) amounted to 64 µg/mL (≈ 111 µM). For the same compound, the IC50 at 24 h in data set [2] and in data set [4] was greater than 146 µM each time. In data set [5], the “Photo Toxicity UV Tox50” value is greater than 146.03 µM. In data set [5], the “Photo Toxicity Dark Tox50” value is greater than 146.03 µM.
On to `CNCCNC(=O)c1cccc(-c2ccc(O)c3c2C[C@H]2C[C@H]4[C@H](N(C)C)C(O)=C(C(N)=O)C(=O)[C@@]4(O)C(O)=C2C3=O)c1` [M], for which the MIC is 64 µg/mL (≈ 108 µM) in data set [1] (setting [6]); 4 µg/mL (≈ 6.77 µM) in data set [1] (setting [7]); 32 µg/mL (≈ 54.2 µM) in data set [1] (setting [8]); 64 µg/mL (≈ 108 µM) in data set [3] (setting [9]); 64 µg/mL (≈ 108 µM) in data set [3] (setting [10]); 64 µg/mL (≈ 108 µM) in data set [3] (setting [11]). Moreover, the MIC in data set [3] (setting [12]) was found to be 64 µg/mL (≈ 108 µM). Moreover, the IC50 at 24 h in data set [2] and in data set [4] was greater than 143 µM throughout. Further, in data set [5], the “Photo Toxicity UV Tox50” value is greater than 143.16 µM. Besides, the “Photo Toxicity Dark Tox50” value in data set [5] was greater than 143.16 µM.
Take `COCCNC(=O)c1ccc(-c2ccc(O)c3c2C[C@H]2C[C@H]4[C@H](N(C)C)C(O)=C(C(N)=O)C(=O)[C@@]4(O)C(O)=C2C3=O)o1` [DF]: the MIC amounted to 16 µg/mL (≈ 27.5 µM) in data set [1] (setting [6]); 0.0625 µg/mL (≈ 0.107 µM) in data set [1] (setting [7]); 0.06 µg/mL (≈ 0.103 µM) in data set [1] (setting [8]); 64 µg/mL (≈ 110 µM) in data set [3] (setting [9]); 32 µg/mL (≈ 55 µM) in data set [3] (setting [10]); 16 µg/mL (≈ 27.5 µM) in data set [3] (setting [11]). The minimum inhibitory concentration (MIC) in data set [3] (setting [12]) is 64 µg/mL (≈ 110 µM). Also, the IC50 at 24 h in data set [2] and in data set [4] was greater than 20 µM each time. In addition, in data set [5], the “Photo Toxicity UV Tox50” value is greater than 200 µM. In data set [5], the “Photo Toxicity Dark Tox50” value is greater than 200 µM.
Regarding `COc1ccc(-c2ccc(O)c3c2C[C@H]2C[C@H]4[C@H](N(C)C)C(O)=C(C(N)=O)C(=O)[C@@]4(O)C(O)=C2C3=O)cc1CNCC(N)=O` [BE], the MIC in data set [1] (setting [6]) came to 32 µg/mL (≈ 52.8 µM); in data set [1] (setting [7]), 1 µg/mL (≈ 1.65 µM); in data set [1] (setting [8]), 0.13 µg/mL (≈ 0.214 µM); in data set [3] (setting [9]), 64 µg/mL (≈ 106 µM); in data set [3] (setting [10]), 16 µg/mL (≈ 26.4 µM); in data set [3] (setting [11]), 64 µg/mL (≈ 106 µM). Further, in data set [3] (setting [12]), the MIC came out at 64 µg/mL (≈ 106 µM). In addition, the IC50 at 24 h in data set [2] and in data set [4] was greater than 10.8 µM in each case. Also, the “Photo Toxicity UV Tox50” value in data set [5] is greater than 107.82 µM. Moreover, the “Photo Toxicity Dark Tox50” value in data set [5] was greater than 107.82 µM.
`CN(C)[C@@H]1C(O)=C(C(N)=O)C(=O)[C@@]2(O)C(O)=C3C(=O)c4c(O)ccc(-c5cccc(C(N)=O)c5)c4C[C@H]3C[C@@H]12` [AE]: the MIC is 4 µg/mL (≈ 7.5 µM) in data set [1] (setting [6]); 0.06 µg/mL (≈ 0.112 µM) in data set [1] (setting [7]); 0.06 µg/mL (≈ 0.112 µM) in data set [1] (setting [8]); 64 µg/mL (≈ 120 µM) in data set [3] (setting [9]); 4 µg/mL (≈ 7.5 µM) in data set [3] (setting [10]); 4 µg/mL (≈ 7.5 µM) in data set [3] (setting [11]). Besides, in data set [3] (setting [12]), the MIC is 64 µg/mL (≈ 120 µM). Moreover, the IC50 at 24 h in data set [2] and in data set [4] was greater than 15.7 µM in each case. Moreover, the “Photo Toxicity UV Tox50” value in data set [5] is greater than 156.64 µM. Besides, the “Photo Toxicity Dark Tox50” value in data set [5] is greater than 156.64 µM.
For the compound `CCN(CC)CCNC(=O)c1cccc(-c2ccc(O)c3c2C[C@H]2C[C@H]4[C@@H](N(C)C)C(O)=C(C(N)=O)C(=O)[C@@]4(O)C(O)=C2C3=O)c1` [O], the MIC worked out at 64 µg/mL (≈ 101 µM) in data set [1] (setting [6]); 4 µg/mL (≈ 6.32 µM) in data set [1] (setting [7]); 4 µg/mL (≈ 6.32 µM) in data set [1] (setting [8]); 64 µg/mL (≈ 101 µM) in data set [3] (setting [9]); 64 µg/mL (≈ 101 µM) in data set [3] (setting [10]); 64 µg/mL (≈ 101 µM) in data set [3] (setting [11]). For the same compound, in data set [3] (setting [12]), the MIC turned out to be 64 µg/mL (≈ 101 µM). In addition, the IC50 at 24 h in data set [2] and in data set [4] was greater than 135 µM throughout. Also, the “Photo Toxicity UV Tox50” value in data set [5] was greater than 134.63 µM. Further, the “Photo Toxicity Dark Tox50” value in data set [5] was greater than 134.63 µM.
On to `CC(=O)Nc1cccc(-c2ccc(O)c3c2C[C@H]2C[C@H]4[C@H](N(C)C)C(O)=C(C(N)=O)C(=O)[C@@]4(O)C(O)=C2C3=O)c1` [AO], for which the MIC in data set [1] (setting [6]) was 4 µg/mL (≈ 7.31 µM); in data set [1] (setting [7]) it was 0.06 µg/mL (≈ 0.11 µM); in data set [1] (setting [8]), 0.06 µg/mL (≈ 0.11 µM); in data set [3] (setting [9]), 64 µg/mL (≈ 117 µM); in data set [3] (setting [10]), 32 µg/mL (≈ 58.4 µM); in data set [3] (setting [11]), 4 µg/mL (≈ 7.31 µM). In data set [3] (setting [12]), the MIC was found to be 64 µg/mL (≈ 117 µM). Moreover, the IC50 at 24 h in data set [2] and in data set [4] was greater than 16.3 µM each time. Besides, the “Photo Toxicity UV Tox50” value in data set [5] is greater than 162.66 µM. The “Photo Toxicity Dark Tox50” value in data set [5] is greater than 162.66 µM.

These data come from patent US20100022483A1, “Substituted Tetracycline Compounds” (Paratek Pharmaceuticals, Inc., priority 2008, published 2010).
